Test results from PMC3829776 (Nature chemical biology, 2013).

Target: T1, Adipose triglyceride lipase (ATGL) (Mus musculus, UniProt Q8BJ56)
T1 sequence (Q8BJ56 1-486): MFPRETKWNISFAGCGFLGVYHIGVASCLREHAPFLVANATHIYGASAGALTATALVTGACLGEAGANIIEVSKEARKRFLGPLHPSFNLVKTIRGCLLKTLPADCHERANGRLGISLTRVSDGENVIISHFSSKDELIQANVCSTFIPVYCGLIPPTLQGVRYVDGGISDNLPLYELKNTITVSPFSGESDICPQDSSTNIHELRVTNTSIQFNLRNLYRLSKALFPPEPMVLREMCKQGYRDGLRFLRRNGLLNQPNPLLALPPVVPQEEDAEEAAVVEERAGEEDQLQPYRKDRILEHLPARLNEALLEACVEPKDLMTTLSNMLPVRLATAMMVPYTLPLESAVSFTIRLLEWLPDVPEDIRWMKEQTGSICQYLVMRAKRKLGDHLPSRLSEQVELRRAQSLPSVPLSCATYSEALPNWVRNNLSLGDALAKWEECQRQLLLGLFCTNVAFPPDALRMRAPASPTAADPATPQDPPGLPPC
T1 sequence (Q9DBL9 1-351 partner): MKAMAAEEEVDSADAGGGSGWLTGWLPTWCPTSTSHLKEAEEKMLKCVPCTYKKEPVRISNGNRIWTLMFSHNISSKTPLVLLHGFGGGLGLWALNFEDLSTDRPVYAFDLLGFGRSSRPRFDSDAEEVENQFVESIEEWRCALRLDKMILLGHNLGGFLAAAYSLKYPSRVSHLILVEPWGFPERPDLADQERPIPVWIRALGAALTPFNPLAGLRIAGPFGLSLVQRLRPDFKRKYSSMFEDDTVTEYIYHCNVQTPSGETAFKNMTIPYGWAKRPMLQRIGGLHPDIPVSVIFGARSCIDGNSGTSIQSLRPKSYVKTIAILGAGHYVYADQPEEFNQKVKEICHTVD
Type: biochemical

CN(C)C(=O)Nc1cccc(-c2ccc(N(C)C)cc2)c1 [compound 4, Atglistatin]
Ki: 355 ± 48 nM
